Results from patent US20060069132A1, “Azolecarboxamide herbicides” (priority 2004, published 2006).

Experiments:
barnyardgrass [1] = test: Test A pre-/postemergence herbicide test; type: in vivo, Echinochloa crus-galli; details: for Plant response rating, Barnyardgrass: Postemergence; for Barnyardgrass plant response rating: Preemergence
Summary of the method: (§1)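 Visual injury rating on a 0–100 scale (0 no effect, 100 complete control) versus untreated controls, about ten days after treatment in greenhouse. Pre: directed soil spray onto seeded sandy loam. Post: spray to runoff on plants 2–10 cm tall at one- to two-leaf stage.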

large crabgrass [2] = test: Test A pre-/postemergence herbicide test; type: in vivo, Digitaria sanguinalis; details: for Plant response rating, Crabgrass, Large: Postemergence; for Crabgrass, Large plant response rating: Preemergence
Summary of the method: as §1

giant foxtail [3] = test: Test A pre-/postemergence herbicide test; type: in vivo, Setaria faberi; details: for Plant response rating, Foxtail, Giant: Postemergence; for Foxtail, Giant plant response rating: Preemergence
Summary of the method: as §1

morningglory [4] = test: Test A pre-/postemergence herbicide test; type: in vivo, Ipomoea spp.; details: for Plant response rating, Morningglory: Postemergence; for Morningglory plant response rating: Preemergence
Summary of the method: as §1

redroot pigweed = test: Test A pre-/postemergence herbicide test; type: in vivo, Amaranthus retroflexus; details: for Plant response rating, Pigweed: Postemergence; for Pigweed plant response rating: Preemergence
Summary of the method: as §1

velvetleaf [5] = test: Test A pre-/postemergence herbicide test; type: in vivo, Abutilon theophrasti; details: for Velvetleaf plant response rating: Preemergence, visual rating, 0 to 100 scale (0 no effect, 100 complete control)
Summary of the method: as §1

barnyardgrass [6] = test: Test B pre-/postemergence herbicide test; type: in vivo, Echinochloa crus-galli
Summary of the method: (§2)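 Plants compared with untreated controls 13–15 days post-treatment and given a visual 0–100 injury score. Applications: preemergence to seeds; postemergence at 1- to 4-leaf (2–18 cm); paddy species flooded, 2-leaf stage. Vehicle non-phytotoxic, surfactant included.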

Surinam grass = test: Test B pre-/postemergence herbicide test; type: in vivo, Urochloa decumbens
Summary of the method: (§3)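 Pre: seeds sown, then sprayed. Post: 1–4-leaf plants (2–18 cm) sprayed at the same time. Paddy: flooded, treated at 2-leaf stage. Formulation: non-phytotoxic solvent with surfactant. Greenhouse 13–15 days; visual 0–100 score relative to controls.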

cocklebur = test: Test B pre-/postemergence herbicide test; type: in vivo, Xanthium strumarium
Summary of the method: as §2

corn = test: Test B pre-/postemergence herbicide test; type: in vivo, Zea mays
Summary of the method: as §3

large crabgrass [7] = test: Test B pre-/postemergence herbicide test; type: in vivo, Digitaria sanguinalis
Summary of the method: as §3

giant foxtail [8] = test: Test B pre-/postemergence herbicide test; type: in vivo, Setaria faberi
Summary of the method: as §3

lambsquarters = test: Test B pre-/postemergence herbicide test; type: in vivo, Chenopodium album
Summary of the method: as §3

morningglory [9] = test: Test B pre-/postemergence herbicide test; type: in vivo, Ipomoea coccinea
Summary of the method: as §2

pigweed = test: Test B pre-/postemergence herbicide test; type: in vivo, Amaranthus retroflexus
Summary of the method: as §3

rice [10] = test: Test B pre-/postemergence herbicide test; type: in vivo, Oryza sativa; details: preemergence, 125 g ai/ha; 0 to 100 scale, 0 is no effect, 100 is complete control
Summary of the method: as §3

velvetleaf [11] = test: Test B pre-/postemergence herbicide test; type: in vivo, Abutilon theophrasti
Summary of the method: as §3

blackgrass = test: Test B postemergence herbicide test; type: in vivo, Alopecurus myosuroides; details: scale 0 (no effect) to 100 (complete control)
Summary of the method: (§4)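 Formulated test chemicals went onto postemergence plants measuring 2 to 18 cm, at one to four leaves. For the paddy assay, species had reached two leaves. Scoring took place 13–15 days later by eye, relative to untreated plants, using 0 for no effect up to 100 for full control.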

wheat = test: Test B postemergence herbicide test; type: in vivo, Triticum aestivum; parameters: key to Wheat plant response rating: 0 = no effect, 100 = complete control; details: scale 0 (no effect) to 100 (complete control)
Summary of the method: (§5)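 Plants grow to 1- to 4-leaf stage (2–18 cm) for postemergence spraying, or to 2-leaf stage for the paddy test. Formulated compound is applied. Greenhouse holding lasts 13–15 days. Response is scored visually relative to controls, 0 no effect to 100 complete control; a dash means no result.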

wild oat = test: Test B postemergence herbicide test; type: in vivo, Avena fatua; details: scale 0 (no effect) to 100 (complete control)
Summary of the method: as §5

rice [12] = test: Test B flooded paddy test; type: in vivo, Oryza sativa; details: 1000 g ai/ha, visual rating, scale 0 to 100 (0 no effect, 100 complete control), 13 to 15 days
Summary of the method: as §5

[13] = system: small flower umbrella sedge; test: Test B flooded paddy test; type: in vivo, Cyperus difformis; details: 1000 g ai/ha, visual rating, scale 0 to 100 (0 no effect, 100 complete control), 13 to 15 days
Summary of the method: as §4

ducksalad = test: Test B flooded paddy test; type: in vivo, Heteranthera limosa; details: 1000 g ai/ha, visual rating, scale 0 to 100 (0 no effect, 100 complete control), 13 to 15 days
Summary of the method: as §4

barnyardgrass [14] = test: Test B flooded paddy test; type: in vivo, Echinochloa crus-galli; details: 1000 g ai/ha, visual rating, scale 0 to 100 (0 no effect, 100 complete control), 13 to 15 days
Summary of the method: as §4

[15] = 500 g ai/ha, 0 to 100 scale, 0 no effect, 100 complete control
[16] = 2000 g ai/ha, 0 to 100 scale, 0 no effect, 100 complete control
[17] = 500 g ai/ha, visual rating, 0 to 100 scale (0 no effect, 100 complete control)
[18] = Postemergence, 500 g ai/ha, visual rating after 13 to 15 days, scale 0 (no effect) to 100 (complete control)
[19] = Preemergence, 500 g ai/ha, scale 0 to 100
[20] = postemergence, 125 g ai/ha, visual rating, scale 0 (no effect) to 100 (complete control)
[21] = preemergence, 125 g ai/ha, 0 to 100 scale, 0 is no effect, 100 is complete control
[22] = Postemergence, 500 g ai/ha, visual rating after 13 to 15 days
[23] = postemergence, 125 g ai/ha, visual rating

CCn1nc(C(C)(C)C)cc1C(=O)Nc1cccc(C(=O)OCC(F)(F)F)c1 [Compound 83]
Plant response rating, Barnyardgrass (barnyardgrass [1]; [15]): 5 | Plant response rating, Barnyardgrass (barnyardgrass [1]; [16]): 20 | Barnyardgrass plant response rating (barnyardgrass [1]; [17]): 0 | Barnyardgrass plant response rating (barnyardgrass [1]; [16]): 0 | Plant response rating, Crabgrass, Large (large crabgrass [2]; [15]): 30 | Plant response rating, Crabgrass, Large (large crabgrass [2]; [16]): 25 | Crabgrass, Large plant response rating (large crabgrass [2]; [17]): 0 | Crabgrass, Large plant response rating (large crabgrass [2]; [16]): 0 | Plant response rating, Foxtail, Giant (giant foxtail [3]; [15]): 20 | Plant response rating, Foxtail, Giant (giant foxtail [3]; [16]): 20 | Foxtail, Giant plant response rating (giant foxtail [3]; [17]): 0 | Foxtail, Giant plant response rating (giant foxtail [3]; [16]): 0 | Plant response rating, Morningglory (morningglory [4]; [15]): 10 | Plant response rating, Morningglory (morningglory [4]; [16]): 10 | Morningglory plant response rating (morningglory [4]; [17]): 30 | Morningglory plant response rating (morningglory [4]; [16]): 10 | Plant response rating, Pigweed (redroot pigweed; [15]): 45 | Plant response rating, Pigweed (redroot pigweed; [16]): 55 | Pigweed plant response rating (redroot pigweed; [17]): 0 | Pigweed plant response rating (redroot pigweed; [16]): 0 | Plant response rating, Velvetleaf (velvetleaf [5]; Postemergence, 2000 g ai/ha, 0 to 100 scale, 0 no effect, 100 complete control): 20 | Velvetleaf plant response rating (velvetleaf [5]; 500 g ai/ha): 0 | Velvetleaf plant response rating (velvetleaf [5]; 2000 g ai/ha): 0 | Plant response rating, Barnyardgrass (barnyardgrass [6]; [18]): 50 | Barnyardgrass plant response rating (barnyardgrass [6]; [19]): 0 | Barnyardgrass plant response rating (barnyardgrass [6]; [20]): 10 | Plant response rating, Barnyardgrass (barnyardgrass [6]; [21]): 0 | Plant response rating, Surinam Grass (Surinam grass; [18]): 40 | Surinam Grass plant response rating (Surinam grass; [20]): 20 | Plant response rating, Surinam Grass (Surinam grass; [21]): 0 | Plant response rating, Cocklebur (cocklebur; [18]): 20 | Cocklebur plant response rating (cocklebur; [19]): 0 | Cocklebur plant response rating (cocklebur; [20]): 0 | Plant response rating, Corn (corn; [18]): 30 | Corn plant response rating (corn; [19]): 0 | Corn plant response rating (corn; [20]): 10 | Plant response rating, Corn (corn; [21]): 0 | Plant response rating, Crabgrass, Large (large crabgrass [7]; [18]): 30 | Crabgrass, Large plant response rating (large crabgrass [7]; [19]): 0 | Crabgrass, Large plant response rating (large crabgrass [7]; [20]): 30 | Plant response rating, Crabgrass, Large (large crabgrass [7]; [21]): 0 | Plant response rating, Foxtail, Giant (giant foxtail [8]; [18]): 10 | Foxtail, Giant plant response rating (giant foxtail [8]; [19]): 0 | Foxtail, Giant plant response rating (giant foxtail [8]; [20]): 0 | Plant response rating, Foxtail, Giant (giant foxtail [8]; [21]): 0 | Plant response rating, Lambsquarters (lambsquarters; [18]): 60 | Lambsquarters plant response rating (lambsquarters; [20]): 0 | Plant response rating, Lambsquarters (lambsquarters; [21]): 0 | Plant response rating, Morningglory (morningglory [9]; [18]): 30 | Morningglory plant response rating (morningglory [9]; [20]): 0 | Plant response rating, Morningglory (morningglory [9]; [21]): 0 | Plant response rating, Pigweed (pigweed; [18]): 100 | Pigweed plant response rating (pigweed; [20]): 70 | Plant response rating, Pigweed (pigweed; [21]): 0 | Plant response rating, Rice (rice [10]): 0 | Plant response rating, Velvetleaf (velvetleaf [11]; [18]): 70 | Velvetleaf plant response rating (velvetleaf [11]; [20]): 50 | Plant response rating, Velvetleaf (velvetleaf [11]; [21]): 0 | Plant response rating, Blackgrass (blackgrass; [22]): 0 | Blackgrass plant response rating (blackgrass; [23]): 0 | Plant response rating, Wheat (wheat; [22]): 30 | Wheat plant response rating (wheat; [23]): 20 | Plant response rating, Oat, Wild (wild oat; [22]): 20 | Oat, Wild plant response rating (wild oat; [23]): 10 | Rice plant response rating (rice [12]): 10 | Sedge, Umbrella plant response rating [13]: 50 | Ducksalad plant response rating (ducksalad): 30 | Barnyardgrass plant response rating (barnyardgrass [14]): 10
